Here are results for three compounds from patent US20010044470A1, “METHOD TO CONTROL ANIMAL ECTO-PARASITES” (priority 1997, published 2001).

Assay type in all cases: in vivo
Test [1] deals with cat fleas (Ctenocephalides felis). Nature of the test: Flea egg hatching after oral application to mouse (systemic control). The note with it: mouse host, oral 20 mg/kg in corn oil; for adjusted percentage concerning the loss of hatchings (%) 5 days after: flea eggs retrieved 5 days after application; for adjusted percentage concerning the loss of hatchings (%) 14 days after: flea eggs retrieved 14 days after application; for adjusted percentage concerning the loss of hatchings (%) 30 days after: flea eggs retrieved 30 days after application. As to the method:
By using an appropriate sonde for the mouse, oral application to the mouse was performed at the rate of about 10 mL of the composition per kilogram body weight of the mouse. The said mouse was then stabilized with a wire netting, and was placed in a plastic container (depth 15 cm×width 15 cm×height 60 cm). Thirty (10 male and 20 female) starved adult cat fleas (Ctenocephalides felis) were freed into the said plastic container and the produced f lea eggs were retrieved f ive days later. A suitable amount (about 60 eggs) was transferred to a plastic dish and, preserved under the conditions wherein the temperature was 26° C. and the humidity was at 90%. After 2 days of preservation, the hatching conditions were observed. Afterwards, the treated mouse was allowed to inhabit a standard pet cage with food and water. Ten days after the application, the mouse was stabilized, placed in a plastic container, and was exposed to cat fleas in the same way as stated above. The produced flea eggs were then retrieved 14 days after the application, preserved in the conditions stated above, and had the hatching conditions observed. Twenty-six days after the application, the mouse was stabilized, placed in a plastic container, and was exposed to cat fleas in the same way as stated above. The produced flea eggs were then retrieved 30 days after the application of the composition, preserved in the conditions stated above, and had the hatching conditions observed. The same procedure was repeated without the application of the composition. The percentages of hatching for applied mouse “T” and the percentage of hatching for non-applied mouse “C” were derived from the equation, respectively: T=(the amount of hatched eggs)÷(the amount of retrieved eggs)×100 C=(the amount of hatched eggs)÷(the amount of retrieved eggs)×100 The acquired values of “T” and “C” were used to determine the adjusted percentage concerning the loss of hatchings by employing equation 1. The acquired values of “T” and “C” were utilized in the following equation: The adjusted percentage concerning the loss of hatchings (%)=(C−T)÷C×100 to determine the adjusted percentage concerning the loss of hatchings (hereinafter, recited as APH). […] In other words, “APH” looks at the amount of eggs that were unable to hatch rather than the amount of eggs that were able to hatch.

Test [2] shares this test system. Nature of the test: Flea egg hatching after oral application to cats (systemic control). The note with it: cat host, oral 20 mg/kg in cat feed. The method, then:
Seven days after infestation, the weights of two cats of were measured and Compound #1 was applied orally to each of said two cats in an amount of 20 mg per one kilogram of the weight of the cat by incorporating Compound #1 into cat feed and having the cat to eat it. After application, the cats were placed in said steel cages.
The flea eggs collected onto the removable bottom tray were retrieved 6 and 14 days after the date of application. About 60 eggs were chosen from each batch of retrieved eggs. They were transferred to a plastic dish and then preserved under the conditions wherein the temperature was 26° C. and the humidity was at 90%. After 5-7 days of preservation, the eggs were observed about hatching.
The same procedure was repeated with another two cats except that cat feed comprising no Compound #1 was applied.
The percentages of hatching for applied cats “T” and the percentage of hatching for non-applied cats “C” were derived from the equation, respectively:
(§1) T=(the amount of hatched eggs)÷(the amount of retrieved eggs)×100
(§2) C=(the amount of hatched eggs)÷(the amount of retrieved eggs)×100
(§3) The obtained values of “T” and “C” were then used to determine the APH by employing the equation 1 mentioned above Example 1.

For test [3] the test system is unchanged. The test is described as follows: Flea egg hatching after oral application to dogs (systemic control). The note with it: beagle dog host, oral 10 mg/kg in dog feed. The method, then: One day after infestation, the weights of three dogs were measured and Compound #1 was applied orally to each of said three dogs in an amount of 10 mg per one kilogram of the weight of the dog by incorporating Compound #1 into dog feed and having the dog to eat it. After application, the dogs were placed in said steel cages.
The flea eggs collected onto the removable bottom tray were retrieved 4 and 5 days after the application. About 60 eggs were chosen from each batch of retrieved eggs. They were transferred to a plastic dish and then preserved under the conditions wherein the temperature was 26° C. and the humidity was at 90%. After 5-7 days of preservation, the eggs were observed about hatching.
The same procedure was repeated with another three dogs except that dog feed comprising no Compound #1 was applied. The percentages of hatching for applied dogs “T” and the percentage of hatching for non-applied dogs “C” were derived from the equation, respectively:
as §1, §2, §3

Where “and” joins values, the source holds several entries; their conditions need not be identical. Equal entries are not always repeated.

For the compound `O=C(NC(=O)c1c(F)cccc1F)Nc1ccc(OC(F)(F)C(F)F)cc1` [Compound B, 1-(2,6-difluorobenzoyl)-3-[4-(1,1,2,2-tetrafluoroethoxy)phenyl]urea], in test [1], the “adjusted percentage concerning the loss of hatchings (%) 5 days after” value was 83% and the “adjusted percentage concerning the loss of hatchings (%) 14 days after” value was 0%.
Consider `O=C(NC(=O)c1c(F)cccc1F)Nc1ccc(OC(F)(F)C(F)C(F)(F)F)cc1F` (stereo not drawn) [Compound #1, 1-(2,6-difluorobenzoyl)-3-[2-fluoro-4-(1,1,2,3,3,3-hexafluoropropoxy)phenyl]urea], for which, in test [1], the “adjusted percentage concerning the loss of hatchings (%) 5 days after” value stood at 100%, the “adjusted percentage concerning the loss of hatchings (%) 14 days after” value amounted to 100% and the “adjusted percentage concerning the loss of hatchings (%) 30 days after” value is reported as 93%. For the same compound, the “average APH after 6 days” value in test [2] (flea eggs retrieved 6 days after application) was 81.9%. Further, the “average APH after 14 days” value in test [2] (flea eggs retrieved 14 days after application, 20 mg/kg) is 79.6% and 80%. In test [3] (flea eggs retrieved 4 days after application), the “average APH after 4 days” value stood at 86.5%. In addition, the “average APH after 5 days” value in test [3] (flea eggs retrieved 5 days after application, 10 mg/kg) is 76.6% and 77%.
Consider `O=C(NC(=O)c1c(F)cccc1F)Nc1cccc(Oc2ncc(C(F)(F)F)cc2Cl)c1` [Compound C, 1-(2,6-difluorobenzoyl)-3-[3-(3-chloro-5-trifluoromethylpyridin-2-yloxy)phenyl]urea], for which, in test [1], the “adjusted percentage concerning the loss of hatchings (%) 5 days after” value turned out to be 96%, the “adjusted percentage concerning the loss of hatchings (%) 14 days after” value is 77% and the “adjusted percentage concerning the loss of hatchings (%) 30 days after” value is 11%.
